Assays:
CaNT tumours = assay: Induction of necrosis in tumours, scored on haematoxylin and eosin stained sections; type: in vivo, mice; settings: Carcinoma NT tumour, 24 h post dose, mean score from at least three tumours, control tumours 2.0
Method: Mice bearing either CaNT or SaS tumours were treated with the test compound and tumours excised after 24 h, fixed in formalin, embedded in paraffin, sectioned and stained with haematoxylin and eosin. Sections were scored based on area of necrosis as follows:
Control tumours had mean scores of 2.0 (CaNT) and 1.0 (SaS). Mean values from at least three different tumours were obtained for each test compound.

CaNT tumour vasculature = assay: Activity against tumour vasculature measured by fluorescent dye (Hoechst 33342): tumour functional vascular volume; type: in vivo, mice; settings: Carcinoma NT tumour, 24 h post dose
Method: Activity Against Tumour Vasculature Measured by Fluorescent Dye.
Tumour functional vascular volume in CaNT tumour-bearing mice was measured using the fluorescent dye Hoechst 33342 according to the method of Smith et al (Brit J Cancer 57, 247-253, 1988). The fluorescent dye was dissolved in saline at 6.25 mg/ml and injected intravenously at 10 mg/kg 24 hours after drug treatment. One minute later, animals were killed and tumours excised and frozen; 10 μm sections were cut at 3 different levels and observed under UV illumination using an Olympus microscope equipped with epifluorescence. Blood vessels were identified by their fluorescent outlines and vascular volume was quantified using a point scoring system based on that described by Chalkley, (J Natl Cancer Inst, 4, 47-53, 1943). All estimates were based on counting a minimum of 100 fields from sections cut at the 3 different levels.

| Compound | Necrosis score (CaNT tumours; 50 mg/kg i.p.) | Vascular volume % reduction (CaNT tumour vasculature; 50 mg/kg i.p.) [%] | Necrosis score (CaNT tumours; 50 mg/kg i.v.) | Vascular volume % reduction (CaNT tumour vasculature; 50 mg/kg i.v.) [%] |
| --- | --- | --- | --- | --- |
| COC(=O)C(CCCN=C(N)N[N+](=O)[O-])NC(=O)Oc1cc(/C=C\c2cc(OC)c(OC)c(OC)c2)ccc1OC (centres unmarked) [Cmpd. of Example 2, (Z)-N-[2-methoxy-5-[2-(3,4,5-trimethoxyphenyl)ethenyl]phenoxycarbonyl]N^G-nitroarginine Methyl Ester] | 8.0 | 95 |  |  |
| COc1ccc(/C=C\c2cc(OC)c(OC)c(OC)c2)cc1OC(=O)C(N)CCCN=C(N)N[N+](=O)[O-] (centres unmarked) [Cmpd. of Example 1, (Z)-1-(4-Methoxy-3-N^G-nitroarginyloxyphenyl)-2-(3,4,5-trimethoxyphenyl)ethene] |  |  | 10.0 | 98 |
| COc1ccc(/C=C\c2cc(OC)c(OC)c(OC)c2)cc1OP(=O)(O)O [CA4P, Combretastatin A4 phosphate] | 6.0 | 91 | 5.7 | 88 |

Source: patent US7265136B1, “Substituted stilbene compounds with vascular damaging activity” (Angiogene Pharmaceuticals Ltd., priority 1999, dated 2007)
